According to patent US20200375996A1, “METHOD OF TREATING NEURODEGENERATIVE DISORDERS BY RESCUING ALPHA-SYNUCLEIN TOXICITY” (D.E. Shaw Research, LLC, priority 2015, published 2020):

Key:
[1] = test system: α-synuclein-expressing yeast; experiment: α-synuclein toxicity rescue in yeast (growth, OD600); assay type: cell-based; conditions: FIGS. 8A-8B
Method: Yeast Strains and culturing: Yeast strains expressing alpha-synuclein have been described in Cooper at. al, 2006. (Cooper A A, et al. Alpha-synuclein blocks ER-Golgi traffic and Rab1 rescues neuron loss in Parkinson's models. Science. 2006 Jul. 21; 313:324) Strains express multiple copies of alpha-synculein for galactose-inducible expression. […] Yeast were cultured in complete synthetic media (CSM) and an appropriate dropout (lacking histidine or uracil) to maintain plasmids if required. For galactose-induction experiments, overnight cultures were grown in CSM/2% glucose to saturation and diluted 1:20 into CSM/2% raffinose for ˜2 generations. Cultures were then diluted into CSM/2% galactose at an optimum OD600 for the experiment (see ‘Growth assays’).
(§1) Yeast Growth assays: Starting cultures for all dose-response assays were based on strains initially constructed in the lab to maintain homogeneity across experiments. All growth assays were carried out in 384 well format. Source plates were assembled in 96 well plates using multichannel pipettes to dilute rows in 1.6-fold serial dilutions of CSMGal. To these dilution series containing 2× final concentration of compound, 2×OD600 culture (in CSMGal) was dispensed with a multichannel pipette to achieve a final drug/culture mix with the desired OD600 and drug concentration. For WT yeast, the final starting OD600 was 0.01. For α-syn, the final starting OD600 was 0.02. Drug concentration ranges varied depending on efficacy, growth inhibition, and solubility in media. A Tecan EvoFreedom liquid handling robot was then used to transfer culture from 96 to 384 well format with each well being represented four times. Final well volume was 35 μL. Plates were then incubated in humidified containers at 30° C. for either 24 or 40 hours. Plates were then read with a Tecan Saphire plate reader at OD600.
Raw OD600 values were transformed to “Relative Growth” in WT cells or “% Maximum Rescue” in α-syn experiments. In WT cells, the well background was subtracted and all values were then normalized to 100% for the untreated condition. In α-syn rescue experiments, the well background was subtracted and the maximum rescue in the particular experiment was normalized to 100%.

WT control yeast strain = experiment: Toxicity profile on WT control yeast strain (growth); assay type: cell-based; conditions: FIGS. 9A-9B
Method: as §1, with “A Tecan EvoFreedom liquid handling robot was then used to transfer culture from 96 to 384 well format with each well being represented four times. Final well volume was 35 μL. Plates were then incubated in humidified containers at 30° C. for either 24 or 40 hours.” left out
Raw OD600 values were transformed to “Relative Growth” in WT cells or “% Maximum Rescue” in α-syn experiments. […] All experimental data points were then calculated by (OD600Exp−OD600untreated/(OD600Max−OD600untreated)×100 to obtain rescue relative to maximum rescue observed. Dose-response curves were generated by nonlinear regression analysis using Prism Graphpad v. 6.0. In cases where the compounds began inhibiting growth, only points up to the maximum were used to fit the curve. Above that, points were directly connected and are always presented as dotted lines.

Sna3-GFP = experiment: Immunoblot analysis of Sna3-GFP polyubiquitination in WT and α-syn cells; assay type: cell-based, yeast; conditions: FIG. 11B
Method: (§2) Protein analysis was performed in NoTox and HiTox strains with the compound treatment at indicated concentrations. Log phase CSM/2% raffinose cultures were induced with 2% galactose for 5 hours with DMSO or the compounds. Cultures were normalized to cell density and cell pellets prepared for SDS-PAGE. Cell pellets were boiled in SDS-loading dye for 15′, centrifuged, and resolved by 4-12% SDS-PAGE. CPY western blots were performed using culture conditions as described above. An anti-Cpy antibody (Invitrogen, A6428) was used at 1:5,000. Post-ER:ER ratios were quantitated using an IRDye800 secondary antibody (Li-Cor Odyssey, Rockland Immunochemicals) and scanned with the Li-Cor Odyssey imaging system. Significance was determined using a one-way ANOVA and Tukey's test of significance. From the same gel, total protein was detected by coomassie staining. Both blots and coomassie-stained gels were scanned using the Li-Cor Odyssey imaging system and quantitated. Significance was determined using a one-way ANOVA with Tukey's test of significance.
In WT Sna3-GFP cells, log phase CSMRaf cultures were shifted to galactose for 5 hours in the presence or absence of the compounds. Cell pellets were lysed in SDS-loading dye and Sna3-GFP cleavage monitored by Western blotting with an anti-GFP antibody. […]

Carboxypeptidase Y (CPY) = experiment: Western blot of Carboxypeptidase Y (CPY) trafficking; assay type: cell-based, yeast; conditions: FIG. 11D
Method: as §2

[2] = test system: aSyn-expressing yeast cells; experiment: Morphological analysis of aSyn-expressing yeast cells; assay type: cell-based; conditions: 10 uM, galactose induction five hours, FIG. 10
Method: Raffinose cultures of α-syn expressing yeast cells were grown up to the logarithmic phase in raffinose. Cultures were induced with galactose for five hours in the presence or absence of the indication concentration of the compounds. In the present example, the identified compounds were present at a concentration of 10 uM. Cells were centrifuged, media discarded, and then fixed with 4% paraformaldehyde in 1×PBS for 1 hr. The fixed culture was centrifuged, and the pellet resuspended in 0.4% paraformaldehyde in 1×PBS and kept at 4° C.

[3] = test system: K63 linkages in iPS derived human neurons; experiment: K63-Ub linkages in human iPS derived neuronal cultures (immunoblot); assay type: cell-based; conditions: 5 μM for 12 hours, FIG. 13A
Method: (§3) Human HEK-293 or neuronal cells treated with the appropriate compounds, were washed twice with ice cold PBS and then 0.5 ml of Lysis buffer was added and cells were scraped off the 10 cm dish (1 ml for 15 cm).
(§4) Lysis buffer is 50 mM Tris/HCl pH 7.5, 1 mM EGTA, 1 mM EDTA, 0.5 or 1% (v/v) NP-40, 1 mM sodium orthovanadate, 50 mM NaF, 5 mM sodium pyrophosphate, 0.27 M sucrose, 10 mM sodium 2-glycerophosphate, 0.2 mM phenylmethylsulphonyl fluoride, 1 mM benzamidine, plus 100 mM iodoacetamide added fresh prior to lysis (weight powder, don't use a frozen stock solution) to inactivate deubiquitylase activities and add also pepstatin/aprotinin to inhibit proteases. Cell extracts were sonicated twice for 15 seconds each time and clarified by centrifugation at 14000 g for 15 min at 4° C. Supernatants were collected and filtered using a 0.45 uM MiniSart/Syringe. Next, protein concentrations were determined by Bradford procedure.
The avidity based K63 linkage sensor protein was based on Sims et. al, 2012. Briefly, avidity based K63 sensor Halo-fusion protein was expressed in an E. coli expression vector and covalently bound to Halo-tag beads [Magne® HaloTag® Beads, 20% Slurry; Cat #G7281]. […] After incubation, the beads were washed three times with 1 ml of Lysis buffer containing 500 mM NaCl and once with 0.5 ml of 10 mM Tris/HCl pH 8.0. […] The eluate is heated at 75° C. for 5 min and analysed by immuno-blotting using an anti-K63 linkage specific antibody (http://www.abcam.com/ubiquitin-linkage-specific-k63-epr8590-448-antibody-ab179434.html).
Pure neuronal cultures derived from human iPS cells were treated with DMSO, DES-2877, DES-4114 and #32 at 5 μM for 12 hours. […] Ubiquitylation site identification by mass spectrometry was performed as described Kim et al., (Systematic and quantitative assessment of the ubiquitin-modified proteome. Mol Cell. 2011; 44:325-340). and Sarraf et al., (Landscape of the PARKIN-dependent ubiquitylome in response to mitochondrial depolarization. Nature. 2013; 496:372-376).

[4] = test system: K63 linkages in human HEK-293 cells; experiment: Ubiquitin chain linkages in HEK-293 cells; assay type: cell-based; conditions: 5 μM for 12 hours, FIG. 13B
Method: as §3, §4
The avidity based K63 linkage sensor protein was based on Sims et. al, 2012. Briefly, avidity based K63 sensor Halo-fusion protein was expressed in an E. coli expression vector and covalently bound to Halo-tag beads [Magne® HaloTag® Beads, 20% Slurry; Cat #G7281]. […] The eluate is heated at 75° C. for 5 min and analysed by immuno-blotting using an anti-K63 linkage specific antibody (http://www.abcam.com/ubiquitin-linkage-specific-k63-epr8590-448-antibody-ab179434.html). […]

COc1cc(Cl)cc(/C=N/Nc2nc(Nc3ccc(C)cc3Br)nc(N3CCOCC3)n2)c1O [DES-4114]
rescue of aSyn toxicity in yeast (in words) [1]: most effective
toxicity on WT control yeast strain (in words) (WT control yeast strain): least toxic among active analogs
polyubiquitinated Sna3-GFP (Sna3-GFP): increase
accumulation of CPY trafficking intermediates en route to the vacuole (Carboxypeptidase Y (CPY)): increase
morphology: vesicular intermediates in yeast cells [2]: accumulation of vesicular intermediates
K63 linkages in iPS derived human neurons [3]: modest increase
K63 linkages in human HEK-293 cells [4]: modest increase
